The source of these data is patent US20240083857A1, “2-Methyl-Quinazolines” (Bayer Pharma Aktiengesellschaft, priority 2017, published 2024).

Test [1] deals with Epidermal Growth Factor Receptor (EGFR) (Homo sapiens (Human), UniProt P00533). In words: EGFR kinase assay (TR-FRET). The format is biochemical. An excerpt: EGFR inhibitory activity of compounds of the present invention was quantified employing the TR-FRET based EGFR assay as described in the following paragraphs.
Epidermal Growth Factor Receptor (EGFR) affinity purified from human carcinoma A431 cells (Sigma-Aldrich, #E3641) was used as kinase. As substrate for the kinase reaction the biotinylated peptide biotin-Ahx-[…] (SEQ ID NO 5) (C-terminus in amid form) was used which can be purchased e.g. form the company Biosyntan GmbH (Berlin-Buch, Germany).
For the assay 50 nL of a 100 fold concentrated solution of the test compound in DMSO was pipetted into a black low volume 384 well microtiter plate (Greiner Bio-One, Frickenhausen, Germany), 2 μL of a solution of EGFR in aqueous assay buffer [50 mM Hepes/HCl pH 7.0, 1 mM MgCl2, 5 mM MnCl2, 0.5 mM activated sodium ortho-vanadate, 0.005% (v/v) Tween-20]were added and the mixture was incubated for 15 min at 22° C. to allow pre-binding of the test compounds to the enzyme before the start of the kinase reaction. […] The concentration of EGFR was adjusted depending of the activity of the enzyme lot and was chosen appropriate to have the assay in the linear range, typical concentration were about 3 U/ml. The reaction was stopped by the addition of 5 μl of a solution of HTRF detection reagents (0.1 μM streptavidine-XL665 [Cis Biointernational] and 1 nM PT66-Tb-Cryptate, an terbium-cryptate labelled anti-phospho-tyrosine antibody from Cis Biointernational [instead of the PT66-Tb-cryptate PT66-Eu-Chelate from Perkin Elmer can also be used]) in an aqueous EDTA-solution (80 mM EDTA, 0.2% (w/v) bovine serum albumin in 50 mM HEPES pH 7.5).
The resulting mixture was incubated 1 h at 22° C. to allow the binding of the biotinylated phosphorylated peptide to the streptavidine-XL665 and the PT66-Eu-Chelate. Subsequently the amount of phosphorylated substrate was evaluated by measurement of the resonance energy transfer from the PT66-Tb-Cryptate to the streptavidine-XL665. Therefore, the fluorescence emissions at 620 nm and 665 nm after excitation at 337 nm were measured in a HTRF reader, e.g. a Pherastar (BMG Labtechnologies, Offenburg, Germany) or a Viewlux (Perkin-Elmer). The ratio of the emissions at 665 nm and at […] was taken as the measure for the amount of phosphorylated substrate.
(Time-resolved FRET reads energy transfer from a long-lived donor to a nearby acceptor.)

Test [2] concerns the target human SOS1 (nucleotide exchange of K-Ras^G12C) (Homo sapiens, UniProt Q07889). In words: Biochemical assay 2: K-Ras^G12C activation assay by hSOS1 at high GTP concentration (HTRF). The note with it: for IC50: E-notation values, unit inferred, 50 μM GTP, read-out: Assay 2 (KRAS-Activation, high GTP) IC50; for inhibition at 20 µM: read-out: Assay 2 (KRAS-Activation by SOS high GTP) activity expressed as % inhibition at 20 μM, high GTP.

[3] abbreviates: E-notation values, unit inferred, read-out: EGFR-assay IC50.
The mark [4] stands for this setting: values given in μM, read-out: EGFR kinase inhibition IC50.
Where [5] appears, read: in μM, read-out: EGFR-assay IC50.

Read-outs that look alike come from different tables or passages of the source.

What is called IC50 is the concentration needed to halve the response being measured. Usually inhibition stands for the share of the control response that was lost under treatment.

Epidermal Growth Factor Receptor (EGFR), sequence (P00533 25-1210): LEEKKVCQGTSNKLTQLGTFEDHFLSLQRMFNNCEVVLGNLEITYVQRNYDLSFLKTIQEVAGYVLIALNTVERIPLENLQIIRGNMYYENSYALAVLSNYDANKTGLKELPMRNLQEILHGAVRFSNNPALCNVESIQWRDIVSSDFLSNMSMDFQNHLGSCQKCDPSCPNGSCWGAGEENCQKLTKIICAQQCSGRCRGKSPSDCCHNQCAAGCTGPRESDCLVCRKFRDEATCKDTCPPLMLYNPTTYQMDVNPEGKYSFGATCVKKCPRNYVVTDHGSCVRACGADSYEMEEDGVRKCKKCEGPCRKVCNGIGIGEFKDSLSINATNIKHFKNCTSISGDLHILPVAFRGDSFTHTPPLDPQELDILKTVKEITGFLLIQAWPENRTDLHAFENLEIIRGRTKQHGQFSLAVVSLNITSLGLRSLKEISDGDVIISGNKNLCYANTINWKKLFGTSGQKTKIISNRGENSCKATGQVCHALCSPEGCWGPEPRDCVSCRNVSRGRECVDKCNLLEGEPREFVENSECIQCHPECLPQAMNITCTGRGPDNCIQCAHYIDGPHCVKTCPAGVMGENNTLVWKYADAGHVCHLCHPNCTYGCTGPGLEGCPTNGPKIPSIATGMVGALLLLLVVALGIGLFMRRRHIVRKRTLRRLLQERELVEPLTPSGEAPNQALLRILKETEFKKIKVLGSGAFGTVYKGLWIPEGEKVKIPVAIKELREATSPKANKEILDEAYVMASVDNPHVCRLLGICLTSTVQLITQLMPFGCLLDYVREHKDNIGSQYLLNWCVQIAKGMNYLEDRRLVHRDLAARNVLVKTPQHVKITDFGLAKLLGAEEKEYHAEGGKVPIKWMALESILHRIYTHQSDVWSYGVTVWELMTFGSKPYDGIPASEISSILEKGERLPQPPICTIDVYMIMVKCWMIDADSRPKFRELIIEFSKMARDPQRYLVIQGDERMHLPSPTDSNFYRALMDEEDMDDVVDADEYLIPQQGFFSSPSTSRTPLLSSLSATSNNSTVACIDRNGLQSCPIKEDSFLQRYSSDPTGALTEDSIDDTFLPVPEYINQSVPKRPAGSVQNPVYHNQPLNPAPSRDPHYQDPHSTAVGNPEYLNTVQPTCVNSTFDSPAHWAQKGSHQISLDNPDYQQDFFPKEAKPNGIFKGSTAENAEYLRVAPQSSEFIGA

With `COc1cc2nc(C)nc(NC(C)c3ccc(-c4ccnc(O)c4)s3)c2cc1OC` (centres unmarked) [Example 410, 4-(5-{1-[(6,7-dimethoxy-2-methylquinazolin-4-yl)amino]ethyl}-2-thienyl)pyridin-2-ol], the IC50 in test [1] (setting [3]) was over 20 µM; in test [2], 2.79 µM.
The matching figures for `COc1cc2nc(C)nc(NC(C)c3cc(Cl)c(Br)s3)c2cc1OC` (centres unmarked) [Example 432, N-[1-(5-bromo-4-chlorothiophen-2-yl)ethyl]-6,7-dimethoxy-2-methylquinazolin-4-amine]: over 20 µM and 15.7 µM.
For `Cc1nc(N[C@H](C)c2cccc(Cl)c2)c2cc(-c3cn[nH]c3)ccc2n1` [Example 405, N-[(1R)-1-(3-chlorophenyl)ethyl]-2-methyl-6-(1H-pyrazol-4-yl)quinazolin-4-amine], in that order: over 20 µM and 0.448 µM.
In the case of `COc1cc2nc(C)nc(NC(C)c3ccc(=O)[nH]c3)c2cc1OC` (single isomer, unassigned; enantiomer 1) [Example 227, 5-{1-[(6,7-dimethoxy-2-methylquinazolin-4-yl)amino]ethyl}pyridin-2(1H)-one, Enantiomer 1], in test [1] (setting [4]), the IC50 is over 20 µM. In addition, the inhibition at 20 µM in test [2] is 24%.
As for `Cc1nc(NC(C)c2ccc(-c3ccccc3CN(C)C)s2)c2cc(NC(=O)N(C)C)ccc2n1` (centres unmarked) [Example 440, 3-(4-{[1-(5-{2-[(dimethylamino)methyl]phenyl}thiophen-2-yl)ethyl]amino}-2-methylquinazolin-6-yl)-1,1-dimethylurea], the figures for the IC50 in test [1] (setting [3]) and in test [2] were over 20 µM and 0.576 µM, respectively.
Turning to `CNCc1ccccc1-c1sc(C(C)Nc2nc(C)nc3cc(OC)c(OC)cc23)cc1C` (centres unmarked) [Example 402, 6,7-di methoxy-2-methyl-N-[1-(4-methyl-5-{2-[(methylamino)methyl]phenyl}thiophen-2-yl)ethyl]quinazolin-4-amine], the IC50 in test [1] (setting [3]) was over 20 µM; in test [2] it was 0.0752 µM.
The matching figures for `Cc1nc(NC(C)c2ccc(Br)s2)c2cc(N3CCN(C)CC3)ccc2n1` (centres unmarked) [Example 416, N-[1-(5-bromothiophen-2-yl)ethyl]-2-methyl-6-(4-methylpiperazin-1-yl)quinazolin-4-amine]: over 20 µM and 0.697 µM.
The matching figures for `Cc1nc(NC(C)c2ccc(-c3ccccc3CN(C)C)s2)c2cc(N)ccc2n1` (centres unmarked) [Example 423, N4-[1-(5-{2-[(dimethylamino)methyl]phenyl}-2-thienyl)ethyl]-2-methylquinazoline-4,6-diamine]: over 20 µM and 0.187 µM.
For `COc1cc2nc(C)nc(NC(C)c3ccc(-c4ccccc4CN(C)C)s3)c2cc1OC` (single isomer, unassigned) [Example 390, N-[1-(5-{2-[(dimethylamino)methyl]phenyl}thiophen-2-yl)ethyl]-6,7-dimethoxy-2-methylquinazolin-4-amine], in that order: over 20 µM and 6.25 µM.
Take `COc1cc2nc(C)nc(NC(C)c3ccc(-c4ccc(C5CC5)cc4CN(C)C)s3)c2cc1OC` (centres unmarked) [Example 443, N-[1-(5-{4-cyclopropyl-2-[(dimethylamino)methyl]phenyl}thiophen-2-yl)ethyl]-6,7-dimethoxy-2-methylquinazolin-4-amine]: the figures for the IC50 in test [1] (setting [3]) and in test [2] were over 20 µM and 0.0605 µM, respectively.
The matching figures for `Cc1nc(NC(C)c2ccc(Br)s2)c2cc(N3CCN(Cc4cccnc4)CC3)ccc2n1` (centres unmarked) [Example 424, N-[1-(5-bromothiophen-2-yl)ethyl]-2-methyl-6-[4-(pyridin-3-ylmethyl)piperazin-1-yl]quinazolin-4-amine]: over 20 µM and 1.41 µM.
Turning to `COc1cc2nc(C)nc(NC(C)c3ccc(-c4ccccc4C4CC(=O)N4)s3)c2cc1OC` (centres unmarked) [Example 411, 4-[2-(5-{1-[(6,7-dimethoxy-2-methylquinazolin-4-yl)amino]ethyl}thiophen-2-yl)phenyl]azetidin-2-one], the IC50 in test [1] (setting [3]) and in test [2] was over 20 µM throughout.
Consider `COc1cc2nc(C)nc(NC(C)c3cc(Cl)c(-c4ccccc4CN(C)C)s3)c2cc1OC` (centres unmarked) [Example 431, N-[1-(4-chloro-5-{2-[(dimethylamino)methyl]phenyl}thiophen-2-yl)ethyl]-6,7-dimethoxy-2-methylquinazolin-4-amine], for which the IC50 in test [1] (setting [3]) was over 20 µM; in test [2], 0.215 µM.
The matching figures for `COc1ccc(-c2ccc(C(C)Nc3nc(C)nc4cc(OC)c(OC)cc34)s2)c(C)c1` (centres unmarked) [Example 422, 6,7-dimethoxy-N-{1-[5-(4-methoxy-2-methylphenyl)thiophen-2-yl]ethyl}-2-methylquinazolin-4-amine]: over 20 µM and 0.914 µM.
`COc1cc2nc(C)nc(NC(C)c3cc(C)c(-c4cnc5n4CCC5)s3)c2cc1OC` (centres unmarked) [Example 381, N-{1-[5-(6,7-dihydro-5H-pyrrolo[1,2-a]imidazol-3-yl)-4-methylthiophen-2-yl]ethyl}-6,7-dimethoxy-2-methylquinazolin-4-amine]: the IC50 in test [1] (setting [5]) was over 20 µM; in test [2], 1.9 µM.
The matching figures for `COCCNCc1ccccc1-c1ccc(C(C)Nc2nc(C)nc3cc(OC)c(OC)cc23)s1` (centres unmarked) [Example 369, 6,7-dimethoxy-N-{1-[5-(2-{[(2-methoxyethyl)amino]methyl}phenyl)thiophen-2-yl]ethyl}-2-methylquinazolin-4-amine]: over 20 µM and 0.152 µM.
In the case of `COc1cc2nc(C)nc(NC(C)c3ccc(-c4ccc(F)cc4CNC(=O)c4cc5ccccc5[nH]4)s3)c2cc1OC` (centres unmarked) [Example 296, N-[2-(5-{1-[(6,7-dimethoxy-2-methylquinazolin-4-yl)amino]ethyl}thiophen-2-yl)-5-fluorobenzyl]-1H-indole-2-carboxamide], the IC50 in test [1] (setting [4]) is over 20 µM. Further, in test [2], the inhibition at 20 µM was determined as 48%.
Turning to `COc1cc2nc(C)nc(NC(C)c3cccc(OCc4ccccc4)c3)c2cc1OC` (centres unmarked) [Example 389, N-{1-[3-(benzyloxy)phenyl]ethyl}-6,7-dimethoxy-2-methylquinazolin-4-amine], the results for the IC50 in test [1] (setting [3]) and in test [2] were over 20 µM and 14.9 µM, respectively.
Consider `COc1cc2nc(C)nc(NC(C)c3ccc(-c4ccc(O)nc4)s3)c2cc1OC` (centres unmarked) [Example 395, 5-(5-{1-[(6,7-dimethoxy-2-methylquinazolin-4-yl)amino]ethyl}thiophen-2-yl)pyridin-2-ol], for which the IC50 in test [1] (setting [3]) came to 7.07 µM; in test [2], 1.06 µM.
`CCCCC(O)c1ccccc1-c1ccc(C(C)Nc2nc(C)nc3cc(OC)c(OC)cc23)s1` (centres unmarked) [Example 377, 1-[2-(5-{1-[(6,7-dimethoxy-2-methylquinazolin-4-yl)amino]ethyl}thiophen-2-yl)phenyl]pentan-1-ol]: the IC50 was over 20 µM in test [1] (setting [5]) and 9.75 µM in test [2].
`Cc1ccc2nc(C)nc(N[C@H](C)c3cccc(Cl)c3)c2c1` [Example 404, N-[(1R)-1-(3-chlorophenyl)ethyl]-2,6-dimethylquinazolin-4-amine]: the IC50 is over 20 µM in test [1] (setting [3]) and 1.45 µM in test [2].
In the case of `COc1cc2nc(C)nc(NC(C)c3ccc(-c4ccc(C#N)cc4CN(C)C)s3)c2cc1OC` (centres unmarked) [Example 413, 4-(5-{1-[(6,7-dimethoxy-2-methylquinazolin-4-yl)amino]ethyl}thiophen-2-yl)-3-[(dimethylamino)methyl]benzonitrile], the results for the IC50 in test [1] (setting [3]) and in test [2] were over 20 µM and 0.262 µM, respectively.
